This is an account of results in patent US11977068B2, “Method for testing ecotoxicity of disinfection by-products” (priority 2020, dated 2024).

The nature of series [1]: Acute toxicity test on second-instar brine shrimp (survival/mortality). The settings on record: brine shrimp (Artemia), in vivo, other: immersion in the water sample in culture wells. How it is done: (§1) S1, anhydrous freeze-dried eggs of a brine shrimp are hatched in artificial seawater to obtain a first-instar brine shrimp, where, a hatching temperature is (26±1)° C., the hatching is performed under a continuous aeration for a hatching time of (10-24) h, and an aeration gas source is air. After the hatching is finished, the first-instar brine shrimp and non-hatched brine shrimp eggs are separated immediately, and the first-instar brine shrimp is placed in the artificial seawater. The brine shrimp at different life stages may have different tolerance to toxicity, and therefore, a separation of the brine shrimp at different instars can avoid the instability of experimental results. S2, the first-instar brine shrimp is cultured in a light incubator for 24 h to obtain a second-instar brine shrimp, where, a culture temperature is (26±1)° C., a light time and a dark time are respectively continuous 12 h, and a light intensity in the light incubator is (1,000-3,000) Lux. S3. First, the second-instar brine shrimp is pre-placed in a water sample to be tested containing toxic substances and exposed for a predetermined time to enable the artificial seawater carried by the second-instar brine shrimp to mix uniformly with the water sample to be tested, and then the second-instar brine shrimp is put into a culture plate containing the water sample to be tested for an acute toxicity test with a time end-point of (42-54) h and a chronic toxicity test with a time end-point of (12-16) days. After the time end-point of the toxicity test is reached, the culture plate is slightly vibrated to observe the survival of the brine shrimp in each well. […] A mortality rate of the brine shrimp is obtained to calculate the toxicity of the water sample to the brine shrimp.
(§2) Hatching of a brine shrimp: 3-5 g of anhydrous freeze-dried eggs of the brine shrimp is put into a 1,500 mL beaker containing 1,200 mL of seawater. The opening of the beaker is sealed with aluminum foil and the beaker is placed in a constant temperature water bath at (26±1)° C. A small air pump is used to blow air for aeration and hatching for 12 h. After the hatching is finished, the first-instar brine shrimp is randomly picked out with a Pasteur pipette immediately and placed in a 150 mm crystallization dish containing sufficient seawater.
(§3) Culture of the brine shrimp: the first-instar brine shrimp is cultured in a light incubator for 24 h. The conditions in the light incubator are as follows: a temperature is (25±1)° C., a light intensity is 1,000 Lux, and a light time and a dark time are respectively continuous 12 h.
(§4) Acute toxicity test: 150 mL of each water sample to be tested is put into a brown bottle, four groups of the water samples with different concentrations of IAM are added into a 12-well culture plate with a pipette, with 2.5 mL of liquid in each well, and each 3 wells is an experimental group with the same concentration of the water samples. The remaining solution in each brown bottle is poured into a clean 150 mm crystallization dish. At least 30 second-instar brine shrimps are transferred into 100-150 mL of the water sample to be tested at one time by the Pasteur pipette in the crystallizing dish, respectively. The second-instar brine shrimps that have been exposed to the solution are transferred by the Pasteur pipette to the culture wells with 10 second-instar brine shrimps in each well. The culture plate is cultured in light. The survival of the brine shrimps in each well is observed after 48 h. The time difference of transferring brine shrimps within and between groups should be shortened as far as possible to avoid the influence of excessive time difference on brine shrimp growth.

Series [2] has as its system brine shrimp. Described as above. The settings on record: for minimum effective concentration (defined as the concentration causing 20% death): second-instar brine shrimp. How it is done: as §1, §2, §3, §4
The subject of series [3] is brine shrimp. Nature of the series: Chronic toxicity test on second-instar brine shrimp (survival/mortality). Here is the method:
as §1
The remaining solution in each brown bottle is poured into a clean 150 mm crystallization dish. […] The culture plate is cultured in light. […] The time difference of transferring brine shrimps within and between groups should be shortened as far as possible to avoid the influence of excessive time difference on brine shrimp growth.

Take `O=C(O)CI` [IAA, iodoacetic acid]: the LC50 at 54 h in series [1] was found to be 1050 µM. The “impact on the survival of brine shrimp in a short period” value in series [2] (59.588 μM, 54 h) is “does not cause significant impact on the survival”. For the same compound, the “minimum effective concentration (defined as the concentration causing 20% death)” value in series [2] (54 h exposure, fitted from FIG. 3 data) came out at 59.588 µM. This compound also displayed a mortality rate in series [3] (59.588 μM (acute minimum effective concentration), 16 days exposure) of 100%. In series [3] (59.588 μM, 16 days exposure), the “survival rate of brine shrimp” value was 0.
For `NC(=O)CI` [IAM, iodoacetamide], the LC50 at 48 h in series [1] came out at 557 µM. Further, the “impact on the survival of brine shrimp in a short period” value in series [2] (544.5 μM, 48 h) is recorded as “does not cause significant impact on the survival”. Besides, the “minimum effective concentration (defined as the concentration causing 20% death)” value in series [2] (48 h exposure, fitted from FIG. 2 data) was determined as 544.5 µM. In series [3] (544.5 μM (acute minimum effective concentration), 14 days exposure), the mortality rate is given as 100%. For the same compound, the “survival rate of brine shrimp” value in series [3] (544.5 μM, 14 days exposure) is recorded as 0.

One may read the LC50 as the concentration that kills 50% of the test population. Low readings indicate a more lethal substance, high ones a less lethal substance.
